{"source": "paper PMC3733398", "about": "(ACS medicinal chemistry letters, 2013)", "system": "sensitive, MDR and XDR clinical Mtb strains", "assay_type": "cell-based, Mycobacterium tuberculosis", "details": "panel of MDR and XDR drug resistant clinical Mtb strains"}
{"compound": "Cc1ccn2c(C(=O)NCc3ccc(Oc4ccc(F)cc4)cc3)c(C)nc2c1", "note": "[Compound 18]", "values": [{"measurement": "potency surpassing that of PA-824", "value": "~10", "unit": "fold"}]}
